Entries after “also recorded” stand apart in the source; their conditions may differ. Like-named read-outs stand apart in the source and are kept apart here.
Key:
[1] = tested on: IL-13-induced STAT6 phosphorylation in BEAS-2B cells; assay: Assay 2: cellular JAK potency, IL-13-induced STAT6 phosphorylation in BEAS-2B cells; format: cell-based; settings: Homo sapiens, read-out: pIC50 for inhibition of IL-13 induced STAT6 phosphorylation (converted)
Description: Assay 2: Cellular JAK Potency Assay: Inhibition of IL-13-Induced STAT6 Phosphorylation in BEAS-2B Cells
The cellular potency assay for JAK inhibition was carried out by measuring interleukin-13 (IL-13, R&D Systems) induced STAT6 phosphorylation in BEAS-2B human lung epithelial cells (ATCC). The anti-STAT6 antibody (Cell Signaling Technologies) was conjugated to AlphaScreen acceptor beads (Perkin Elmer), while the anti-pSTAT6 (pTyr641) antibody (Cell Signaling Technologies) was biotinylated using EZ-Link Sulfo-NHS-Biotin (Thermo Scientific).
BEAS-2B cells were grown at 37° C. in a 5% CO2 humidified incubator in 50% DMEM/50% F-12 medium (Life Technologies) supplemented with 10% FBS (Hyclone), 100 U/mL penicillin, 100 μg/mL streptomycin (Life Technologies), and 2 mM GlutaMAX (Life Technologies). […] After a minimum of 2 h incubation, the assay plates were read on the EnVision plate reader. AlphaScreen luminescence signals were recorded and utilized to calculate the percent inhibition values based on DMSO and background controls.
For dose-response analysis, percent inhibition data were plotted vs. compound concentrations, and IC50 values were determined from a 4-parameter robust fit model with the Prism software. Results may also be expressed as the negative logarithm of the IC50 value, pIC50.

[2] = tested on: TPA-induced increase in ear thickness; assay: Assay 10: in vivo TPA-induced acute dermatitis model in mice; parameters: species or system female Balb/c mice
Description: Assay 10: In Vivo TPA-Induced Acute Dermatitis Model in Mice
The objective of this assay is to assess the anti-inflammatory effect of compound (I), in a model of acute dermatitis being studied for cutaneous inflammatory conditions such as atopic dermatitis (Dong et al., J Pharmacol Exp Ther, 2013, 344, 436-446).
Topical dermal application of phorbol ester TPA in mice causes an inflammatory response that is characterized by edema and neutrophil influx at the early phase (2-24 h) and by epidermal cell proliferation at the later phase (24-48 h) (Griffiths et al., Agents and Actions, 1988, 25, 344-351). In this model, female Balb/c mice were topically administered with 20 μl/ear of either vehicle or TPA (2.5 μg). For the solution formulation, vehicle (1:7 DMSO:Acetone) or test compound was topically applied 30 min before and 15 min after TPA administration. For the ointment formulation, vehicle or compound (I) (0.5% strength) was applied 30 min before TPA. The degree of inflammation was assessed as the change in ear thickness at 6 hours after TPA application.

[3] = Assay 16: Caco-2 permeation assay; format: in vitro ADME; settings: human, Caco-2, with Verapamil 25 μM (P-gp); as illustrated in Table 13; read-out: permeability class (Caco-2)
Description: (§1) Assay 16: Caco-2 Permeation Assay The Caco-2 permeation assay was used as an indication of skin permeability. The assay measures the rate at which test compounds in solution permeate a cell monolayer (designed to mimic the tight junction of human small intestinal monolayers). CacoReady 24-well transwell plates were obtained from […], Calif.). The compounds were evaluated at a concentration of 5 μM from 10 mM DMSO stock solutions in duplicate (n=2). The passive permeability of the compounds tested was evaluated using Caco-2 cell monolayers along with Verapamil (25 μM) to inhibit P-gp transport proteins in the apical to basolateral (A-B) direction. The experiment was conducted in a 37° C., 5% CO2 incubator. Caco-2 culture media consisted of standard filtered DMEM, FCS 10%, L-Glutamine 1% and PenStrep 1%. Basal assay plate was prepared by adding 750 μL of transport buffer to A-B wells. A CacoReadyTM plate was prepared by removing the Caco-2 media from the apical wells and replacing with fresh transport media (200 μL repeated for a total of 3 washes). Blank media (200 μL) was then replaced with diluted compound for A-B wells. To begin the incubation, the basal plate was removed from the incubator and the apical section was added on top of it. […] The permeation coefficient (Kp, mean A to B+Verapamil […]) in cm/sec was calculated as dQ (flux)/(dt×Area×concentration).

Caco-2 cell monolayers = assay: Assay 16: Caco-2 permeation assay; format: in vitro ADME; settings: 5 μM, A to B, with Verapamil (25 μM), 120 minutes
Description: as §1

SMILES: CCS(=O)(=O)N1[C@@H]2CCC[C@H]1C[C@H](N(C)c1nc(CO)c(F)c(Nc3cc(C)[nH]n3)n1)C2 [Compound (I), (2-(((1R,3s,5S)-9-(ethylsulfonyl)-9-azabicyclo[3.3.1]nonan-3-yl)(methyl)amino)-5-fluoro-6-((5-methyl-1H-pyrazol-3-yl)amino)pyrimidin-4-yl)methanol]
- IC50 [1]: 3.16 nM
- Inhibition of TPA-induced increase in ear thickness (mean % inh ± SEM (n)) [2]: 34.9%
- Inhibition of TPA-induced increase in ear thickness (mean % inh ± SEM (n)) ([2]; 30 μg/ear dosed as solution, 6 hours after TPA): 6.6% ± 1.1%
- Inhibition of TPA-induced increase in ear thickness (mean % inh ± SEM (n)) ([2]; 100 μg/ear dosed as solution, 6 hours after TPA): 2.4% ± 0.7%
- Inhibition of TPA-induced increase in ear thickness (mean % inh ± SEM (n)) ([2]; 300 μg/ear dosed as solution, 6 hours after TPA): 35.5% ± 3.1%
- Inhibition of TPA-induced increase in ear thickness (mean % inh ± SEM (n)) ([2]; 1000 μg/ear dosed as solution (highest dose), 6 hours after TPA): 54.8 ± 2.6%
- Inhibition of TPA-induced increase in ear thickness (mean % inh ± SEM (n)) ([2]; 0.5% Ointment, 20 μl/ear, 30 min before TPA, 6 hours after TPA): 34.9% ± 3.3% (12)
- effect on TPA-induced increase in ear thickness (in words) ([2]; dosed as a solution): dose-dependent effect; also recorded: dose dependent manner
- Papp A→B at 120 min, 5 μM [3]: > 20 ×10⁻⁶ cm/s
- Cacoverap Kp (Caco-2 cell monolayers): 42.3 ×10⁻⁶ cm/s
